One experiment concerns the target T1, DNA gyrase (Staphylococcus aureus, UniProt P0A0K8+P20831).
T1 construct: gene gyrA; with DNA gyrase subunit B (GyrB); plasmid DNA
The experiment in a line: S. aureus gyrase supercoiling assay, relaxed pBR322, agarose gel. The experiment is classed as biochemical.

In the next experiment the target is T2, Topoisomerase IV (Staphylococcus aureus, UniProt P0C1S7+Q2FYS4).
T2 construct: gene parC; with Topoisomerase IV subunit B (ParE); kDNA substrate
Put plainly: Topo IV kDNA decatenation assay, agarose gel. The experiment is classed as biochemical.

The text below walks through data of paper PMC10573198, “Synthesis, Physicochemical Characterization using a Facile Validated HPLC Quantitation Analysis Method of 4-Chloro-phenylcarbamoyl-methyl Ciprofloxacin and Its Biological Investigations” (International Journal of Molecular Sciences, 2023).

A word on the IC50: it is the concentration that inhibits the measured activity by half. A high value points to a need for much substance.

T2 sequence (Q2FYS4 whole entry): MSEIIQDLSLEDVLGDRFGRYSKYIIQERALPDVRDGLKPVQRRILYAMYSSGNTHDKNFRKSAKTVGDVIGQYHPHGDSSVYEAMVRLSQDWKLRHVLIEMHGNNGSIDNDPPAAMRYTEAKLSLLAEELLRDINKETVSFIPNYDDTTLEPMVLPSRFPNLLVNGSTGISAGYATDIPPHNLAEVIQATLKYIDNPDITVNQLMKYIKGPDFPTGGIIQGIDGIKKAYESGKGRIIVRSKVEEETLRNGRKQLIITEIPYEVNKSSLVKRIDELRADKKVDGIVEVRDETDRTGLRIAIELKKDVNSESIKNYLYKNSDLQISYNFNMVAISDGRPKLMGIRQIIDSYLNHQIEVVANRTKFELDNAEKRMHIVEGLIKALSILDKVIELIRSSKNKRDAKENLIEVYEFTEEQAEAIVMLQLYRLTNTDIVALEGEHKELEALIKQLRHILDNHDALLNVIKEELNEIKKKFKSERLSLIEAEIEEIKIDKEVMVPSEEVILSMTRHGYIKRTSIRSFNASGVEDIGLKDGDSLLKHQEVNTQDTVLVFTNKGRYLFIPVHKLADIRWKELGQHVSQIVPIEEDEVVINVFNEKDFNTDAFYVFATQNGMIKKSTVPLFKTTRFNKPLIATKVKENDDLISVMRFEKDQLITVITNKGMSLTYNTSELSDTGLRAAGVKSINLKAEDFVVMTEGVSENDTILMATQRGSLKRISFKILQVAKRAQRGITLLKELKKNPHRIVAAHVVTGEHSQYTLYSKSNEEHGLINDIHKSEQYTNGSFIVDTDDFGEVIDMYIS
T2 sequence (P0C1S7 whole entry): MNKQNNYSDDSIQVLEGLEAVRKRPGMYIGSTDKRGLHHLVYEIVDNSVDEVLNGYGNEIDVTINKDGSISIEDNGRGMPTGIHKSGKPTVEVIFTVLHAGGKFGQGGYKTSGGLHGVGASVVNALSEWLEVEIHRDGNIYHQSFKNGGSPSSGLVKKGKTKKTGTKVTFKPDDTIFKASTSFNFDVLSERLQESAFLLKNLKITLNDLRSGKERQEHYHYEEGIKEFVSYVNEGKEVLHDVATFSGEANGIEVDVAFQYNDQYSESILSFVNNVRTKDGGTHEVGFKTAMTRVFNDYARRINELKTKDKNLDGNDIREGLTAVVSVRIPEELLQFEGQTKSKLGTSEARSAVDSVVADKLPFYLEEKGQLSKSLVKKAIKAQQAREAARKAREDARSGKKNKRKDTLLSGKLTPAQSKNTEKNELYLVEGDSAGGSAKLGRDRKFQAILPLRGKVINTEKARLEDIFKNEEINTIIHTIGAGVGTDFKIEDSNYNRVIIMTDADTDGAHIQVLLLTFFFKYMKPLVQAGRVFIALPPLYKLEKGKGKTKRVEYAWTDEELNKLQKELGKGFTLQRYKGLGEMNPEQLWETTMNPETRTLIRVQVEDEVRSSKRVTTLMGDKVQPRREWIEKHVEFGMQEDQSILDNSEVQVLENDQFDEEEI
T1 sequence (P0A0K8 2-644): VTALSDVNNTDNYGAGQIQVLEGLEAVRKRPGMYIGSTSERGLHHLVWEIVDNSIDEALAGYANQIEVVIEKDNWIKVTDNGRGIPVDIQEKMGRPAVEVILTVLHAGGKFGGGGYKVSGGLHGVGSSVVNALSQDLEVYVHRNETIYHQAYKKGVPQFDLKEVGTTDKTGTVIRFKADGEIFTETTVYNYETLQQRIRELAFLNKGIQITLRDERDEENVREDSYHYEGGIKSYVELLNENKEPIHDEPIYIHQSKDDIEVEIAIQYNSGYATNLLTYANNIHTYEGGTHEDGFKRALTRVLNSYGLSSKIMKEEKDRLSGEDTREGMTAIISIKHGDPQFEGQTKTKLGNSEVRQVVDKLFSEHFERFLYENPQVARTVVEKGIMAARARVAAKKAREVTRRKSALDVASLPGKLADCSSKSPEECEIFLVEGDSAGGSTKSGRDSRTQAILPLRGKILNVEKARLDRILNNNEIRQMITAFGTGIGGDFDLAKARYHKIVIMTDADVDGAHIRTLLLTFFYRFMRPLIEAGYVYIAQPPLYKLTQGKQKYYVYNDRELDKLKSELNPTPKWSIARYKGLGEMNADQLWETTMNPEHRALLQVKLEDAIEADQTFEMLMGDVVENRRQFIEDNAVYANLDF
T1 sequence (P20831 whole entry): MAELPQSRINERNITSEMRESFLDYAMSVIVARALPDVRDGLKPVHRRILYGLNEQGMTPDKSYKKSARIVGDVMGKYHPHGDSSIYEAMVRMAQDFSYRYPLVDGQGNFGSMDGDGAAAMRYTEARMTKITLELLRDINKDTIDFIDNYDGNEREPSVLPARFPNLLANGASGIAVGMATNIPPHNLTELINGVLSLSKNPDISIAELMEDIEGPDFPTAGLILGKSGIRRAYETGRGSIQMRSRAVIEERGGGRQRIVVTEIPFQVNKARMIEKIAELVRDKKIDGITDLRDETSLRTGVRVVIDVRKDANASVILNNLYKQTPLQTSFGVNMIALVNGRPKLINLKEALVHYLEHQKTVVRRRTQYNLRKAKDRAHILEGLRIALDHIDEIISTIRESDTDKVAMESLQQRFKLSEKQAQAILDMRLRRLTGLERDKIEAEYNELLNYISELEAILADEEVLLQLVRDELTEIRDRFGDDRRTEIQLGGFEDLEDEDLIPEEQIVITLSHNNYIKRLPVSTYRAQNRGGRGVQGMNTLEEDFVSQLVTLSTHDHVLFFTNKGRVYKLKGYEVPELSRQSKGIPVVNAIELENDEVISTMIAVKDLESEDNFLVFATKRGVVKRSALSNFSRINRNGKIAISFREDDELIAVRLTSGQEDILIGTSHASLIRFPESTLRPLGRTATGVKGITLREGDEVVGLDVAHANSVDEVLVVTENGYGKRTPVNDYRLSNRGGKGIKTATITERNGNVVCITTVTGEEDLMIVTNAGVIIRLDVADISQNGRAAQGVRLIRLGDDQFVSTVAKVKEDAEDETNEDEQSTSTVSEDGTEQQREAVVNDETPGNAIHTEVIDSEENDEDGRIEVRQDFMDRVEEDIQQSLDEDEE

As for `O=C(CN1CCN(c2cc3c(cc2F)c(=O)c(C(=O)O)cn3C2CC2)CC1)Nc1ccc(Cl)cc1` [Cpx-Drv], the figures for the 50% inhibitory concentration (IC50) on DNA gyrase and at Topoisomerase IV were 13.5 µM and 3.83 µM, respectively.
